The structures appear in SMILES notation. ≈ marks a conversion by molar mass, not a printed value.

One data set addresses T1, MAO-B (Homo sapiens, UniProt P27338).
T1 sequence (P27338 whole entry): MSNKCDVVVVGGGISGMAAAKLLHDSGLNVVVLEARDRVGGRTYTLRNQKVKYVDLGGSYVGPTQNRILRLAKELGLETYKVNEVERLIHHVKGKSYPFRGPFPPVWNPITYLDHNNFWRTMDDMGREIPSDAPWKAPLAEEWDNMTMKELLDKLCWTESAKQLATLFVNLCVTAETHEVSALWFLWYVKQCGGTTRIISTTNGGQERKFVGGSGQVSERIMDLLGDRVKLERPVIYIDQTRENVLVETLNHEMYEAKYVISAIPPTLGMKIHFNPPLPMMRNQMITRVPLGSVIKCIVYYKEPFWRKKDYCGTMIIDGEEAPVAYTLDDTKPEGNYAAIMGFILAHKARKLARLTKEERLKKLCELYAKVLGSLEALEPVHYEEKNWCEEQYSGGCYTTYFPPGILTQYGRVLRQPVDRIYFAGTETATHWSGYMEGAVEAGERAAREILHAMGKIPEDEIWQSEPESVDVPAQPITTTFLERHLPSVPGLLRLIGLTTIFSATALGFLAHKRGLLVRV
The experiment in a line: Inhibition of human MAO-B assessed as residual activity at 10 uM. The note with it: read-out: INH.

Another data set concerns the target T2, MAO-A (Homo sapiens, UniProt P21397).
T2 sequence (P21397 whole entry): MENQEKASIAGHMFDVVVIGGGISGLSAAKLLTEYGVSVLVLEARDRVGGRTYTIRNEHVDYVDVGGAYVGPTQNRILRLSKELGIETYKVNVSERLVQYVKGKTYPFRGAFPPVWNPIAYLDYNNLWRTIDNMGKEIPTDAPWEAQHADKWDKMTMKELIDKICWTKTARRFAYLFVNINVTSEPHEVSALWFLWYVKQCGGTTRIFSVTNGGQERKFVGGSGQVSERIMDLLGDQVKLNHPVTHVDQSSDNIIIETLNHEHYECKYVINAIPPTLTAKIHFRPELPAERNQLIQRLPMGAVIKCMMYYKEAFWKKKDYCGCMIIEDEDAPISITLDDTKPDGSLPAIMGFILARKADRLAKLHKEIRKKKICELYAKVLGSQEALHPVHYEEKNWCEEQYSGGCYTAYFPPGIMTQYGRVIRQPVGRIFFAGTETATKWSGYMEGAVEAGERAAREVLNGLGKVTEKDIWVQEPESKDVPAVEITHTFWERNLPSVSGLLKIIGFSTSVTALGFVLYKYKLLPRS
The experiment in a line: Inhibition of human MAO-A assessed as residual activity at 10 uM. The note with it: read-out: INH.

A further data set deals with CYP3A4 (Homo sapiens, UniProt P08684). The experiment in a line: Inhibition of CYP3A4 (unknown origin) assessed as residual activity at 10 uM. The note with it: read-out: INH. The format is ADME.
Chain of CYP3A4 (P08684 whole entry): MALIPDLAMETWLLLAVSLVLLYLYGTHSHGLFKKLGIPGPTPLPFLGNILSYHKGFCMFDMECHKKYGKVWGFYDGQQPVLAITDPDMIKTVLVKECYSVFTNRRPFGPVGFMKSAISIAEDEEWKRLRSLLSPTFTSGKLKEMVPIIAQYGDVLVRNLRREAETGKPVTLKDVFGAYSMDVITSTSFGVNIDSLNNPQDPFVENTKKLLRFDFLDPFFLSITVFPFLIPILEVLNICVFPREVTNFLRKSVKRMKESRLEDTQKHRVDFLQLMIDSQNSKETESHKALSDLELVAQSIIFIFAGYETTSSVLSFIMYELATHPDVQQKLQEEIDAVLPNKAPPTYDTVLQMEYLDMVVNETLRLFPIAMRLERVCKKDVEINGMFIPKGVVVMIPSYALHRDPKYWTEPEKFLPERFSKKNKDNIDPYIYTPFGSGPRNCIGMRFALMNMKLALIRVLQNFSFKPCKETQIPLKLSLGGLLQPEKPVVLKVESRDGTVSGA
The target in a further data set is CYP2C9 (Homo sapiens, UniProt P11712). The experiment in a line: Inhibition of CYP2C9 (unknown origin) assessed as residual activity at 10 uM. The note with it: read-out: INH. The format is ADME.
Chain of CYP2C9 (P11712 whole entry): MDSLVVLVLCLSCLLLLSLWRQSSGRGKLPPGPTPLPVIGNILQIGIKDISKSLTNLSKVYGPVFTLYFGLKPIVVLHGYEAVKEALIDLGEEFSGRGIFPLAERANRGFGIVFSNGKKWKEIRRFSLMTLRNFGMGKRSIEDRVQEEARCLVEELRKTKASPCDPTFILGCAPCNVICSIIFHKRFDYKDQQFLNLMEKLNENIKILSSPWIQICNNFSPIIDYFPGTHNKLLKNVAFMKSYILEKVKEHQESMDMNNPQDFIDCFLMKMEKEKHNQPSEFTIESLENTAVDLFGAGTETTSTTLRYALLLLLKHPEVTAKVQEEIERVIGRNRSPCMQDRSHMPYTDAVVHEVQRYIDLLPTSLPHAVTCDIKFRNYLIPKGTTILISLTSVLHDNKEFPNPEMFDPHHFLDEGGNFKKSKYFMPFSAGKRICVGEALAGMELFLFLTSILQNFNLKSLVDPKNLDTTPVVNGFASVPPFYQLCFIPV
For a further data set, the target named is CYP2D6 (Homo sapiens, UniProt P10635). The experiment in a line: Inhibition of CYP2D6 (unknown origin) assessed as residual activity at 10 uM. The note with it: read-out: INH. The format is ADME.
Chain of CYP2D6 (P10635 whole entry): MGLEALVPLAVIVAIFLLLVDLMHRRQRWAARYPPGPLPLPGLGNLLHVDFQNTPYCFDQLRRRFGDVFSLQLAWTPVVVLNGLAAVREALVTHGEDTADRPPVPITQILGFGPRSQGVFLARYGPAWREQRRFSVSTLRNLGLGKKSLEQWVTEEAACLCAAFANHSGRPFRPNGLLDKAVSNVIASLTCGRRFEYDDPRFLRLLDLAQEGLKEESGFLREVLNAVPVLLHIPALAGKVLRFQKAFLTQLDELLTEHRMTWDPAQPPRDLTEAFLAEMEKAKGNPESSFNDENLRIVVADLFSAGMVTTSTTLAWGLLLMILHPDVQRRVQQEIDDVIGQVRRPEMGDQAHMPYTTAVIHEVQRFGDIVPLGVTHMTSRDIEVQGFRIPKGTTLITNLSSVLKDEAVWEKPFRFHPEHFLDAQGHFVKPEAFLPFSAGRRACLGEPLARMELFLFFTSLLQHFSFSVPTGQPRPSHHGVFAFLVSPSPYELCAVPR
In a further data set the target is T3, CYP1A2 (Homo sapiens, UniProt P05177).
T3 sequence (P05177 whole entry): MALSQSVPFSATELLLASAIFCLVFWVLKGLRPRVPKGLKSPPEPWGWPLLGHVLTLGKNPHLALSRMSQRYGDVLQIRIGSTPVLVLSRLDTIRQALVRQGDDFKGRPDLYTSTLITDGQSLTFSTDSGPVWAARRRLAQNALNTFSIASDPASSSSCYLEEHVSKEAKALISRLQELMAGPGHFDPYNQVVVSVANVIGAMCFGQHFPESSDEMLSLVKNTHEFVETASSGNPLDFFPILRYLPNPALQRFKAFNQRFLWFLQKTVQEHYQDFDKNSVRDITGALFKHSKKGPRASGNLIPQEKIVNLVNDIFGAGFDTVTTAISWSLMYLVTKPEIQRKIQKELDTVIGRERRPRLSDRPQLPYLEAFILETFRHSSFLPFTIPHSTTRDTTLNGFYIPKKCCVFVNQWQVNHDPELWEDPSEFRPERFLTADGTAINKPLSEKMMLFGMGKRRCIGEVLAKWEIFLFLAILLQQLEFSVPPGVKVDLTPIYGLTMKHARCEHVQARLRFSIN
The experiment in a line: Inhibition of CYP1A2 (unknown origin) assessed as residual activity at 10 uM. The format is ADME. The following applies: read-out: INH.

Data set [1] concerns the target Voltage-gated inwardly rectifying potassium channel KCNH2 (Homo sapiens, UniProt Q12809). The experiment in a line: Inhibition of human hERG by automated patch clamp assay.
The test system of the next data set is Haemophilus influenzae. The experiment in a line: Antibacterial activity against betalactamase positive Haemophilus influenzae by agar dilution method. The format is functional. (Agar dilution tests growth on a series of plates holding different concentrations.)
The test system of the next data set is Streptococcus pyogenes. The experiment in a line: Antibacterial activity against Streptococcus pyogenes 308A by agar dilution method. The format is functional.
The subject of a further data set is Streptococcus agalactiae. The experiment in a line: Antibacterial activity against Streptococcus agalactiae ATCC 2901 by agar dilution method. The format is functional.
The next data set relates to Streptococcus pneumoniae. The experiment in a line: Antibacterial activity against penicillin-resistant Streptococcus pneumoniae C402 by agar dilution method. The format is functional.
Another data set has as its system Enterococcus faecium. The experiment in a line: Antibacterial activity against vancomycin-resistant Enterococcus faecium C803 by agar dilution method. The format is functional.
The subject of another data set is Enterococcus faecalis. The experiment in a line: Antibacterial activity against vancomycin-resistant Enterococcus faecalis C474 by agar dilution method. The format is functional.
A further data set concerns Staphylococcus. The experiment in a line: Antibacterial activity against methicillin-resistant coagulase negative Staphylococcus by agar dilution method. The format is functional.
The subject of another data set is Staphylococcus aureus. The experiment in a line: Antibacterial activity against methicillin-resistant Staphylococcus aureus C463 by agar dilution method. The format is functional.

Chain of Voltage-gated inwardly rectifying potassium channel KCNH2 (Q12809 whole entry): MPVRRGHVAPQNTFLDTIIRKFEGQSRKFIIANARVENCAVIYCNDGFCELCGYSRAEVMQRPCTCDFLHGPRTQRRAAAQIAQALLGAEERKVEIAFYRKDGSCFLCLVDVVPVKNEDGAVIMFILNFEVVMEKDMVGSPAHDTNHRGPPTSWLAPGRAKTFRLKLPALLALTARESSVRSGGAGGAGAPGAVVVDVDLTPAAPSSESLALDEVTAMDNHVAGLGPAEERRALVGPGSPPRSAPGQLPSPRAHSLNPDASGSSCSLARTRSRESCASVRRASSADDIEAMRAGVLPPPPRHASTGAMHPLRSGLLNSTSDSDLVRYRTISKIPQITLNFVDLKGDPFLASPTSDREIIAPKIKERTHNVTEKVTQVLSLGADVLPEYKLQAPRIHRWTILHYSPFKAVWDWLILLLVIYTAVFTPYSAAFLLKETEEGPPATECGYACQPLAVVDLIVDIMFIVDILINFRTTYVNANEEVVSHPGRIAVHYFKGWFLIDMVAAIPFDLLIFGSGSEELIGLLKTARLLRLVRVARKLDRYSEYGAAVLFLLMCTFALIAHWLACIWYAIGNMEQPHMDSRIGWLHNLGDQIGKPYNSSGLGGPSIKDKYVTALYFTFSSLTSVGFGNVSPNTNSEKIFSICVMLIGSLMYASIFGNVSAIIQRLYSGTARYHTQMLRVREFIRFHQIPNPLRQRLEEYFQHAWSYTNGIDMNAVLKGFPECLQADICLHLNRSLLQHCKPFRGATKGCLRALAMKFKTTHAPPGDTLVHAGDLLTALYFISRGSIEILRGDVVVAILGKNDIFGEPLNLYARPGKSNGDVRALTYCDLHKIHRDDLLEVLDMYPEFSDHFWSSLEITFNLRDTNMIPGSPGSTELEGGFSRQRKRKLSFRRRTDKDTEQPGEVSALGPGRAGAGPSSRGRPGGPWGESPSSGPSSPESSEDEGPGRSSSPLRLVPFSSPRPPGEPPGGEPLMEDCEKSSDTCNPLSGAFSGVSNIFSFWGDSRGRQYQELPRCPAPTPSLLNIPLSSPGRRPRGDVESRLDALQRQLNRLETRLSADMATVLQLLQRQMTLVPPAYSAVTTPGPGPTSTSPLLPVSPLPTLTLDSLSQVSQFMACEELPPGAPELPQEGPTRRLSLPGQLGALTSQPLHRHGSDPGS

In the case of `N#CC=C1CCN(c2ccc(N3C[C@H](Cn4ccnn4)OC3=O)cc2F)CC1`, the activity at 10 µM stood at 111% on MAO-B; 3.54% on MAO-A; 32% on CYP3A4; 88% at CYP2C9; 80.9% at CYP2D6; 55.2% on CYP1A2. In data set [1], this compound gave an IC50 of 49.5 µM. Also, the MIC in the data set with Haemophilus influenzae stood at 0.78 µg/mL (≈ 2.04 µM); in the data set on Streptococcus pyogenes, 0.39 µg/mL (≈ 1.02 µM); in the data set with Streptococcus agalactiae, 0.78 µg/mL (≈ 2.04 µM); in the data set on Streptococcus pneumoniae, 0.39 µg/mL (≈ 1.02 µM); in the data set on Enterococcus faecium, 1.56 µg/mL (≈ 4.08 µM); in the data set with Enterococcus faecalis, 3.12 µg/mL (≈ 8.16 µM). In addition, the MIC against Staphylococcus and with Staphylococcus aureus was 3.12 µg/mL (≈ 8.16 µM) in each case.

For `CC(C#N)=C1CCN(c2ccc(N3C[C@H](Cn4ccnn4)OC3=O)cc2F)CC1`, the activity at 10 µM at MAO-B is 74.8%; on MAO-A, 34.8%; at CYP3A4, 7.45%; on CYP2C9, 61.5%; at CYP2D6, 65.1%; at CYP1A2, 45.7%. The midpoint of inhibition in data set [1], the IC50, lay at 213 µM. For the same compound, the MIC in the data set with Haemophilus influenzae stood at 0.39 µg/mL (≈ 0.984 µM); against Streptococcus pyogenes, 0.39 µg/mL (≈ 0.984 µM); in the data set with Streptococcus agalactiae, 0.19 µg/mL (≈ 0.479 µM); with Streptococcus pneumoniae, 0.19 µg/mL (≈ 0.479 µM); in the data set with Enterococcus faecium, 1.56 µg/mL (≈ 3.94 µM); in the data set on Enterococcus faecalis, 1.56 µg/mL (≈ 3.94 µM). Besides, the MIC against Staphylococcus and in the data set on Staphylococcus aureus was 1.56 µg/mL (≈ 3.94 µM) throughout.

For `CC(C#N)=C1CCN(c2ccc(N3C[C@H](Cn4cc(F)nn4)OC3=O)cc2F)CC1`, the activity at 10 µM at MAO-B worked out at 34.8%; on MAO-A, 10.2%; on CYP3A4 it was 21.4%; on CYP2C9, 64.8%; at CYP2D6, 106%; at CYP1A2 it was 92.8%. The IC50 in data set [1] was 21 µM. In addition, the MIC against Haemophilus influenzae was determined as 6.25 µg/mL (≈ 15.1 µM); against Streptococcus pyogenes it was 6.25 µg/mL (≈ 15.1 µM); against Streptococcus agalactiae, 12.5 µg/mL (≈ 30.2 µM); against Streptococcus pneumoniae, 6.25 µg/mL (≈ 15.1 µM); against Enterococcus faecium it was 100 µg/mL (≈ 241 µM); in the data set on Enterococcus faecalis it was 100 µg/mL (≈ 241 µM). Further, the MIC in the data set on Staphylococcus and against Staphylococcus aureus was 100 µg/mL (≈ 241 µM) throughout.

The IC50 is the concentration needed to halve the response being measured. Higher therefore signals a need for much substance.

For the origin of these results see ChEMBL document CHEMBL2321764, “Synthesis and antibacterial activities of new piperidine substituted (5R)-[1,2,3]triazolylmethyl and (5R)-[(4-F-[1,2,3]triazolyl)methyl] oxazolidinones” (Bioorg Med Chem Lett, 2013).
